Data: article PMC5588548, “Suramin Inhibits Osteoarthritic Cartilage Degradation by Increasing Extracellular Levels of Chondroprotective Tissue Inhibitor of Metalloproteinases 3” (Molecular Pharmacology, 2017)
Values after ≈ are worked out from the molar mass of the structure shown.

Legend:
[1] = system: HTB94 chondrosarcoma cells; format: cell-based; conditions: after 8 hours; TIMP-3 1 nM preincubated with suramin 200 µg/ml; HTB94 cells
Description: (§1) Cells (HTB94 chondrosarcoma cells, primary porcine chondrocytes, or human osteoarthritic chondrocytes) were plated overnight (6 × 10^5 cells per well of a 12-well plate) in DMEM containing 10% FCS and washed three times in serum-free DMEM.
To evaluate endocytosis of exogenously added TIMP-3, cells were incubated with recombinant TIMP-3 (1 nM in 1.5 ml DMEM with 0.1% FCS) for 0–24 hours. Conditioned media were concentrated by precipitation with trichloroacetic acid [5% (v/v), 4°C, 18 hours]. After centrifugation (13,000 rpm, 4°C, 10 minutes), protein-containing pellets were resuspended in SDS sample buffer (30 µl), electrophoresed (7 µl) on a 10% polyacrylamide gel, and immunoblotted onto polyvinylidene fluoride. After blocking in 5% (m/v) BSA in Tris-buffered saline, TIMP-3 levels were analyzed using an M2 anti-FLAG antibody (Sigma-Aldrich), an alkaline phosphatase–conjugated anti-mouse secondary antibody (Promega, Southampton, UK), and a Western Blue stabilized substrate for alkaline phosphatase (Promega). Immunoblots were analyzed by densitometry using Phoretix 1D densitometry software (TotalLab, Newcastle-upon-Tyne, UK), and TIMP-3 remaining in the medium (mean ± S.D., n = 3) was calculated relative to pixel volume at a t of 0 hours (defined as 100%).

[2] = system: HTB94 chondrosarcoma cells; assay: Accumulation of endogenous TIMP-3 in medium of HTB94 cells; format: cell-based; conditions: suramin 50–200 µg/ml, 30 hours
Description: as §1
Media were harvested, precipitated with trichloroacetic acid, and analyzed by immunoblotting using a rabbit anti–TIMP-3 polyclonal antibody (AB6000; Millipore, Hertfordshire, UK) and an alkaline phosphatase–conjugated anti-rabbit secondary antibody (Promega). […]

[3] = system: TIMP-3 mRNA; assay: TIMP-3 mRNA analysis in human OA chondrocytes (quantitative PCR); format: cell-based; conditions: suramin 0–250 µg/ml, 48 hours
Description: HTB94 chondrosarcoma cells or primary human chondrocytes (1 × 10^6 cells) were treated in triplicate with 0–250 µg/ml suramin in serum-free DMEM for 18–48 hours. Total RNA was isolated from cells using an RNeasy mini kit (Qiagen, Crawley, UK) and cDNA was synthesized (reverse transcriptase kit; Applied Biosystems, Foster City, CA). Levels of TIMP-1, TIMP-2, TIMP-3, LRP1, and RPLP0 internal reference mRNA were quantified by real-time polymerase […] chain reaction on a Corbett Rotor-Gene 6000 (Corbett Life Science, Mortlake, NSW, Australia) using TaqMan Fast Universal PCR Master Mix (Applied Biosystems) and TaqMan probes (Applied Biosystems) Hs01092512_g1 for TIMP-1, Hs00234278_m1 for TIMP-2, Hs00165949_m1 for TIMP-3, Hs00233856_m1 for LRP1, and Hs99999902_m1 for RPLP0. The ΔΔ threshold cycle values (mean ± S.D., n = 3 technical replicates) are shown relative to control untreated HTB94 cells (defined as 1).

[4] = system: human OA chondrocytes; assay: Cell viability assay (MTS), human OA chondrocytes; format: cell-based; conditions: suramin 0–250 µg/ml, 48 hours
Description: HTB94 chondrosarcoma cells or human OA chondrocytes (10^3 cells per well in 96-well plates) were plated overnight in DMEM with 10% FCS. Cells were washed in serum-free cartilage medium and treated for 48–72 hours with suramin (0–250 µg/ml) or sodium nitroprusside (10 mM) as a control to induce cell death. Cell viability was then assessed using the 3-(4,5-dimethylthiazol-2-yl)-5-(3-carboxymethoxyphenyl)-2-(4-sulfophenyl)-2H-tetrazolium CellTiter Cell Proliferation Assay (Promega) according to the manufacturer’s instructions (mean ± S.D., n = 3).

[5] = system: human OA cartilage explants; assay: Aggrecan release from human OA cartilage explants (DMMB assay); format: cell-based; conditions: 48 hours
Description: The effects of suramin on cartilage degradation were assessed using porcine or human cartilage explants. Explants were rested for 48 hours after dissection and were washed with serum-free DMEM. Explants were then treated with retinoic acid (1 µM; Sigma-Aldrich), interleukin (IL)-1 (10 ng/ml; Peprotech, London, UK), and/or suramin (0–250 µg/ml) in serum-free DMEM for 48 hours.
Aggrecan degradation was analyzed by quantifying aggrecan fragments released into the conditioned media using the dimethylmethylene blue (DMMB) dye-binding assay ([Farndale et al., 1986]) (mean ± S.D., n = 3) and by immunoblotting with neo-epitope antibodies that recognize ADAMTS-cleaved but not intact aggrecan. For immunoblotting, conditioned media were deglycosylated by adding an equal volume of 200 mM sodium acetate and 50 mM Tris/HCl, pH 6.8, containing chondroitinase and β-endoglycosidase (0.05 U each; 18 hours, 37°C; Sigma-Aldrich). Aggrecan fragments were precipitated by adding five volumes of ice-cold acetone (18 hours, −20°C). After centrifugation (13,000 rpm, 10 minutes, 4°C), pellets were resuspended in SDS sample buffer, separated by electrophoresis on a 6% (v/v) polyacrylamide gel, and blotted onto polyvinylidene fluoride. […]

[6] = target: T1, MMP-2 (Homo sapiens, UniProt P08253); assay: MMP-2 activity in vitro (data not shown); format: biochemical
T1 sequence (P08253 110-660): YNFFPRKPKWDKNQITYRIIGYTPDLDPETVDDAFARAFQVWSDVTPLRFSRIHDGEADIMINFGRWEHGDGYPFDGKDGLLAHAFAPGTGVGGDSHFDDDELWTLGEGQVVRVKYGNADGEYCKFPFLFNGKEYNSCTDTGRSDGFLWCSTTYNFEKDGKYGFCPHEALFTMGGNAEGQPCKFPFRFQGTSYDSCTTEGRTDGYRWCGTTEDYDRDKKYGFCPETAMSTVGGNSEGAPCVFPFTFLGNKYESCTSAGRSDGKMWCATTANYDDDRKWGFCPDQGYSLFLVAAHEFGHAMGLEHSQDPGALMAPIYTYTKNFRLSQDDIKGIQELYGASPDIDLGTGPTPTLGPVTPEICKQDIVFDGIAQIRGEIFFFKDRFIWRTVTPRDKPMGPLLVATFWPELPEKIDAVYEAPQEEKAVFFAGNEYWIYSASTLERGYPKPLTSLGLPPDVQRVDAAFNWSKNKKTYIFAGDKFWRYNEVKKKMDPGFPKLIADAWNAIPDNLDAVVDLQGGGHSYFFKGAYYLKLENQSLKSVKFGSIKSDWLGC

[7] = system: rat inflammatory arthritis model; parameters: method as in Sahu et al., 2012; conditions: ref Sahu et al., 2012; cited from earlier work

Cc1ccc(C(=O)Nc2ccc(S(=O)(=O)O)c3cc(S(=O)(=O)O)cc(S(=O)(=O)O)c23)cc1NC(=O)c1cccc(NC(=O)Nc2cccc(C(=O)Nc3cc(C(=O)Nc4ccc(S(=O)(=O)O)c5cc(S(=O)(=O)O)cc(S(=O)(=O)O)c45)ccc3C)c2)c1 [suramin]
TIMP-3 remaining in the medium [1]: more than 85%
endogenous TIMP-3 in the medium [2]: accumulated
TIMP-3 mRNA levels [3]: without any significant change
cell viability (MTS) [4]: did not affect
cell viability (MTS) ([4]; listed as Suramin): without any significant change
aggrecan degradation ([5]; human OA cartilage explants stimulated with IL-1 10 ng/ml or retinoic acid 1 µM): dose-dependently inhibited
IC50 ([5]; human OA cartilage explants, retinoic acid 1 µM, read-out: IC50 for inhibition of aggrecan degradation): 62 ± 16 µg/mL (≈ 47.8 µM)
MMP-2 activity in vitro [6]: inhibit MMP-2 activity
cartilage damage [7]: ameliorate cartilage damage
